How the values were obtained:
[1] = system: E. multilocularis metacestode vesicles; assay: Phosphoglucose isomerase (PGI) release assay (damage-marker release) on metacestode vesicles; type: cell-based, Echinococcus multilocularis; conditions: 10 μM; for PGI d5 (relative PGI release): 5 days; for PGI d12 (relative PGI release): 12 days
[2] = system: E. multilocularis metacestode vesicles; assay: Metacestode vesicle viability assay (ATP, CellTiter-Glo); type: cell-based, Echinococcus multilocularis
Description: Viability was assessed after 12 days using the same metacestode vesicles as for the PGI release assay. Triton X-100 was added to each well to a final concentration of 0.1 %. Subsequently the metacestode vesicles were broken mechanically and 50 μL of the supernatant was mixed with 50 μL of CellTiter-Glo® buffer (Promega, Dübendorf, Switzerland). Measurements were performed on a HIDEX Sense microplate reader.

[3] = overview screen, singlets, relative to 0.1 % Triton X-100, DMSO subtracted
[4] = confirmation screen, triplicates, mean
[5] = confirmation screen, 10 μM, triplicates, mean, 12 days
[6] = overview screen, 10 μM, singlets, 12 days, relative to DMSO control

SMILES	PGI d5 (relative PGI release) [1, 3]	PGI d12 (relative PGI release) [1, 3]	Viability d12 (relative viability) ([2]; 10 µM)	PGI d5 (relative PGI release) [1, 4]	PGI d12 (relative PGI release) [1, 4]	Viability d12 (relative viability) [2, 5]	Viability d12 (relative viability) [2, 6]
CC(C)(C)NC(=O)[C@@H]1C[C@@H]2CCCC[C@@H]2CN1C[C@@H](O)[C@H](Cc1ccccc1)NC(=O)[C@H](CC(N)=O)NC(=O)c1ccc2ccccc2n1 [MMV637879]	-0.1506%	-17.9883%	108.384%				
O=C(/C(=C/c1ccc(Cl)cc1Cl)n1ccnc1)c1ccc(Cl)cc1 [MMV1634491]	24.947%	25.566%		0.16%	5.15%	83.69%	14.6955%
Cc1nc(Nc2ccc(F)cc2)nc(N2CCc3ccccc3C2C)c1C (stereo not drawn) [MMV030787]	-1.879%	-7.918%					56.6945%
O=C(O)c1ccccc1Sc1ncnc2sc3c(c12)CCC3 [MMV1579878]	-1.729%	-24.5374%					137.353%
Cc1[nH]c2ccccc2c1CC(=O)N[C@@H](Cc1ccccc1)C(=O)N(C)c1ccccc1 [MMV1580798]	0.141%	-4.531%					204.25%
CCCCCCC1c2ccc(O)cc2Oc2cc(O)ccc21 [MMV1593535]	1.318%	-18.7037%					92.5147%
O=C(NNC(=S)Nc1ccc(Cl)cc1)c1ccncc1 [MMV1782227]	3.665%	72.3585%		0.0543%	-0.30%	83.65%	12.3576%
NS(=O)(=O)c1ccc(NC(=O)NC(c2ccccc2)c2ccccc2)cc1 [MMV1579776]	-0.6102%	61.5508%		-0.15%	-0.30%	80.00%	8.5167%
CCc1cc(Nc2cc(=O)n(CCN3CCN(C(=O)c4ccccc4)CC3)c(=O)[nH]2)ccc1C [MMV1634383]	0.8629%	52.997%					104.622%
CCN1CCN(Cc2nc3ccc([N+](=O)[O-])cc3c(=O)n2-c2ccccc2F)CC1 [MMV275100]	0.006823%	-0.1551%					107.175%
Fc1ccc(-n2cc(Cn3c(-c4cccc(F)c4)nc4ccccc43)nn2)cc1 [MMV1580850]	-2.0582%	-24.0097%					34.9853%
CC[C@H](NC(=O)[C@H](C)NC)C(=O)N1C[C@@H](O)C[C@H]1Cc1c(-c2[nH]c3cc(F)ccc3c2C[C@@H]2C[C@H](O)CN2C(=O)[C@H](CC)NC(=O)[C@H](C)NC)[nH]c2cc(F)ccc12 [MMV1557856]	-1.122%	-0.1165%					106.397%
O=C(NC(=O)N1CCCc2ccccc21)c1ccc(Cl)cc1Cl [MMV1782218]	-2.44%	-25.0073%					60.7859%
O=C(Nc1nnc(-c2ccc(Cl)cc2)o1)c1nc2ccccc2s1 [MMV102833]	3.0788%	1.422%					141.762%
C[C@@]1(O)[C@H](O)[C@@H](CO)O[C@H]1n1ccc2c(N)ncnc21 [MMV1593519]	0.01923%	0.1259%					152.992%
COc1c(F)c(F)cc2c(=O)c(C(=O)O)cn(C3CC3)c12 [MMV1480967]	0.2423%	-3.0894%					115.193%
CCOc1ccc(/C=N/NC(=O)C2CC2c2ccc(C(C)(C)C)cc2)cc1OCC (stereo not drawn) [MMV1634398]	0.06885%	0.3627%					324.092%

SMILES	PGI d5 (relative PGI release) [1, 3]	PGI d12 (relative PGI release) [1, 3]	Viability d12 (relative viability) ([2]; 10 µM)	PGI d5 (relative PGI release) [1, 4]	PGI d12 (relative PGI release) [1, 4]	Viability d12 (relative viability) [2, 5]	Viability d12 (relative viability) [2, 6]
CC(C)Oc1ccc(-c2nc(-c3cccc4c3CC[C@@H]4NCCO)no2)cc1C#N [MMV1580492]	-0.3732%	-18.7012%					55.483%
N[C@@H]1CN(c2c(F)cc3c(=O)c(C(=O)O)cn([C@@H]4C[C@@H]4F)c3c2Cl)CC12CC2 [MMV1579850]	-2.37%	-5.627%					103.25%
C[C@@H](NC(=O)c1ccccc1-c1ccccc1)B(O)O [MMV1582493]	-2.006%	35.0936%					135.265%
CN(C(=O)C1(c2ccc(Cl)cc2)CCC1)c1ccccc1 [MMV1581030]	0.6829%	-0.7665%					114.111%
CCOC(=O)Nc1cc(NC(C)CC(C)CN(CC)CC)c2nc(-c3ccccc3)c(-c3ccccc3)nc2n1 (stereo not drawn) [MMV1633967]	-2.798%	-20.9085%					104.121%
Oc1c(C(Nc2ccccn2)c2ccccc2)ccc2cccnc12 (stereo not drawn) [MMV565773]	-0.6323%	-6.242%					113.31%
O=C(Nc1ccc(-c2ccccc2)cc1)C1=C(O)C(Cc2ccccc2)OC1=O (stereo not drawn) [MMV1593531]	4.793%	88.1717%		0.17%	1.55%	49.52%	16.5533%
CCc1nc(N)nc(N)c1C#CC(C)c1cc(OC)cc(-c2ccncc2)c1 (stereo not drawn) [MMV1580844]	-2.169%	33.6502%		-0.46%	0.83%	84.60%	16.6994%
Nc1nc(=O)[nH]cc1F [MMV004508]	-1.885%	-20.764%	219.514%				
O=C(Nc1ccc(F)cc1)c1nn(-c2ccccc2)c(=O)cc1Cl [MMV1578555]	4.414%	31.7823%					71.8821%
O=C(CCc1ccc2c(c1)OCO2)NCc1ccc(-c2ccccc2F)cc1 [MMV1782110]	-0.8152%	-13.3688%					100.363%
CC[C@@]1(O)C(=O)OCc2c1cc1n(c2=O)Cc2cc3c(CN(C)C)c(O)ccc3nc2-1.Cl [MMV1633678]	0.263%	-2.724%					288.666%
Cc1ccccc1NC(=O)Nc1cccc([N+](=O)[O-])c1 [MMV1581029]	1.329%	-16.6439%					89.4166%
CC(C)c1ccc(COc2cccc(-c3cc([S+](C)[O-])c(C#N)c(=O)[nH]3)c2)cc1 (stereo not drawn) [MMV1582497]	3.781%	-9.364%					210.079%
O=C(O)CSc1cc(NS(=O)(=O)c2cccc3cccnc23)c2ccccc2c1O [MMV218827]	-0.1296%	0.539%					73.5027%
CC(C)(C)OC(=O)NCc1ccc(C(=O)N[C@H]2CCOC2=O)cc1 [MMV1581547]	-1.162%	45.6301%					30.2259%
